Experimental data as given in ChEMBL document CHEMBL1139899, “Alpha-phenyl-N-tert-butyl nitrone (PBN) derivatives: synthesis and protective action against microvascular damages induced by ischemia/reperfusion” (Bioorg Med Chem, 2007).

Assays:
[1] = Partition coefficient, log P of the compound; format: physicochemical; settings: octanol/water
[2] = system: Syrian golden hamster; assay: Protective effect against ischemia/reperfusion-induced microvascular damages in golden hamster assessed as number of leakage site per cm^2 at 3 mg/kg, po after 15 mins by cheek pouch assay; format: functional, Mesocricetus auratus
[3] = system: Syrian golden hamster; assay: Protective effect against ischemia/reperfusion-induced microvascular damages in golden hamster assessed as number of leakage site per cm^2 at 3 mg/kg, po after 10 mins by cheek pouch assay; format: functional, Mesocricetus auratus
[4] = system: Syrian golden hamster; assay: Protective effect against ischemia/reperfusion-induced microvascular damages in golden hamster assessed as number of leakage site per cm^2 at 10 mg/kg, po after 10 mins by cheek pouch assay; format: functional, Mesocricetus auratus
[5] = system: Syrian golden hamster; assay: Protective effect against ischemia/reperfusion-induced microvascular damages in golden hamster assessed as number of leakage site per cm^2 at 10 mg/kg, po after 15 mins by cheek pouch assay; format: functional, Mesocricetus auratus

For CC(C)(C)/[N+]([O-])=C/c1ccccc1, the logP [1] was 1.5.

For COc1cc(/C=[N+](/[O-])C(C)(C)C)ccc1O, the logP [1] was 1.58, the Activity [2] was 85 leakage sites/cm2 and the Activity [3] was 108 leakage sites/cm2.

In the case of CC(C)(C)/[N+]([O-])=C\c1ccc([N+](=O)[O-])cc1, the logP [1] is reported as 1.39, the Activity [2] is reported as 78 leakage sites/cm2 and the Activity [3] is reported as 90 leakage sites/cm2.

Compound CC(C)(C)/[N+]([O-])=C\c1cccnc1 has a logP [1] of 0.21, an Activity [2] of 60 leakage sites/cm2 and an Activity [3] of 68 leakage sites/cm2.

CC(C)(C)/[N+]([O-])=C/c1cc2c(cc1Br)OCO2 gave a logP [1] of 1.69, an Activity [2] of 109 leakage sites/cm2 and an Activity [3] of 118 leakage sites/cm2.

CN(C)c1ccc(/C=[N+](/[O-])C(C)(C)C)cc1 gave a logP [1] of 1.73, an Activity [2] of 55 leakage sites/cm2 and an Activity [3] of 75 leakage sites/cm2.

With CC(C)(C)/[N+]([O-])=C\c1ccco1 the logP [1] was 1.1, the Activity [2] was 33 leakage sites/cm2 and the Activity [3] was 49 leakage sites/cm2.

COc1cc(/C=[N+](/[O-])C(C)(C)C)ccc1OCc1ccccc1 gave a logP [1] of 2.68, an Activity [2] of 35 leakage sites/cm2 and an Activity [3] of 40 leakage sites/cm2.

Compound CC(C)(C)/[N+]([O-])=C\c1ccc2c(c1)OCO2 has a logP [1] of 0.57, an Activity [2] of 38 leakage sites/cm2 and an Activity [3] of 44 leakage sites/cm2.

In the case of Cc1c(C)c2c(c(C)c1O)CC[C@@](C)(CCC[C@H](C)CCC[C@H](C)CCCC(C)C)O2 [ALPHA-TOCOPHEROL], the Activity [4] is reported as 50 cm2 and the Activity [5] is reported as 45 cm2.
